Reference: article PMC10135050, “Neutralizing Carbapenem Resistance by Co-Administering Meropenem with Novel β-Lactam-Metallo-β-Lactamase Inhibitors” (Antibiotics, 2023)
In brackets after ≈: the same amount, converted by molar mass. Entries after “also recorded” stand apart in the source; their conditions may differ.

Columns and labels:
[1] = test system: Escherichia coli TC CARF (VIM-2); assay: MIC, broth microdilution and checkerboard assay; type: cell-based; conditions: read-out: MIC BP2 Alone
Description: (§1) The Minimum Inhibitory Concentration (MIC) of meropenem BP2 was determined utilizing the broth microdilution assay, as described by the Clinical and Laboratory Standards Institute (CLSI) antimicrobial susceptibility guidelines. The mono-therapeutic effect of each antibiotic and MBLI was evaluated across a panel of MBL-producing Enterobacterales.
(§2) The drug susceptibility profile of meropenem in combination with BP2 was studied using the checkerboard assay. This assay was used to ascertain the effect of two drugs on antimicrobial resistance targeting CRE strains. The assay was performed according to the protocol described previously and was under CLSI antimicrobial susceptibility guidelines. Briefly, twofold dilutions of meropenem with each chelator were made in Cation-adjusted Mueller Hinton Broth (CAMHB) in a 96-well microtiter plate. A 0.5 McFarland-standardized bacterial inoculum was added to each well to obtain a final volume of 100 µL per well. Thereafter, plates were incubated at 37 °C for 18 h under aerobic conditions. The checkerboard assays were performed in triplicate. The MIC was determined as the lowest concentration at which no visible growth was present. The fractional inhibitory concentration index (FICI) was calculated for each combination according to the equation FICI = FICa (MIC of drug A in combination/MIC of drug A alone) + FICb (MIC of drug B in combination/MIC of drug B alone). The FICI was interpreted as follows: synergy, FICI ≤ 0.5; additive 0.5–1; indifference, […] FICI < 4; and antagonism, FICI ≥ 4 [61].

[2] = test system: Klebsiella pneumoniae USA 449 (NDM); assay: MIC, broth microdilution and checkerboard assay; type: cell-based; conditions: read-out: MIC BP2 Alone
Description: as §1, §2

MTT cell viability assay = type: cell-based, human; conditions: human, HepG2 cells, 6 h, read-out: IC50 cytotoxicity
Description: (§3) HepG2 cells were cultured in 25 mL cell culture flasks using Eagle’s minimum essentials medium (EMEM) supplemented with 10% fetal bovine serum, 1% pen-strep-fungizone and 1% L-glutamine, maintained in a humidified incubator (37 °C, 5% CO2) until approximately 80% confluence.
(§4) The MTT assay was one of the methods used to determine in vitro cell viability of BP on HepG2 cells. HepG2 cells (15,000 cells/well) were seeded into a 96-well microtiter plate and allowed to adhere overnight (37 °C, 5% CO2). Thereafter, the cells were incubated (37 °C, 5% CO2) with a range of BP concentrations (0, 1, 8, 10, 50, 100 and 200 μg/mL) in triplicate for 6 h. After the 6 h incubation, the cells were washed with 0.1 M phosphate-buffered saline (PBS) and incubated with MTT salt solution (5 mg/mL in 0.1 M PBS) and 100 μL CCM for 4 h (37 °C, 5% CO2). The MTT salt solution was removed, and DMSO (100 μL/well) was added and incubated for 1 h. The optical density was measured using a spectrophotometer (Bio-Tek μQuant) at 570/690 nm. Results are expressed as % cell viability versus BP2 concentration (μg/mL).

HepG2 cells = assay: MTT cell viability assay; type: cell-based, human
Description: as §3, §4

[3] = target: T1, Recombinant human glyoxylase II (Glo2) (Homo sapiens, UniProt Q16775); assay: Non-specific binding to zinc in non-MBLs, glyoxylase II activity; type: biochemical; conditions: concentrations up to 500 µM
T1 construct: purchased BioVision Inc., Waltham, MA, USA
Source text: Metal chelators are known to suffer from off-target specificity and as a result have been criticized as potential MBLIs in vivo [44].
The methodology has been previously described. EDTA (purchased from Merck KGaA, Darmstadt, Germany) was included as a positive control.

[4] = test system: Escherichia coli ATCC 25922; assay: MIC, broth microdilution and checkerboard assay; type: cell-based; conditions: ATCC25922, E. coli ATCC 25922, no MBL, alone, read-out: MIC MEM Alone
Description: as §1, §2

K. pneumoniae NDM = assay: Murine thigh infection model; type: in vivo, Klebsiella pneumoniae; conditions: neutropenic BALB/c mice, 100 mg/kg IP every 2 h
Description: A murine thigh infection model described by Michail et al. was performed with minor modifications. Male Bragg inbred albino c-strain (BALB/c) mice weighing 20–25 g (n = 90) were used in this study. Each of the three groups constituted n = 30 mice, with n = 6 mice receiving treatment every two hours. Prior to infection, mice were IP treated with 150 mg/kg cyclophosphamide on day one and 100 mg/kg on day four of the trial. This was performed to induce neutropenia in the mice. Neutropenia was confirmed by a neutrophil count of <100/mm^3. On day five of the trial, 0.1 mL inoculum containing 10^6–10^8 cfu/mL of K. pneumoniae NDM were IM injected into the right thigh of the mice to initiate infection. Meropenem monotherapy, BP2 + meropenem combination therapy, or normal saline was administered every two hours in an eight-hour treatment period. Mice were euthanized by isoflurane overdose at 2 h, 4 h, 6 h and 8 h post dosing. The right thigh muscle was then aseptically removed and homogenized in 5 mL PBS. Homogenates were spread onto Mueller–Hinton agar and MacConkey agar plates, followed by incubation at 35 °C for 24 h and enumeration of the cfu/mL.

Q: For `CON=C(C(=O)NC1C(=O)N2C(C(=O)O)=C(COC(C)=O)CSC12)c1csc(NC(=O)CC(C(=O)OC)N2CCN(CC(=O)O)CCN(CC(=O)O)CC2)n1` (stereo in doubt) [BP2], which MIC [1] is on record?
A: > 256 µg/mL

Q: What about the MIC [2] of the same compound?
A: > 256 µg/mL

Q: What about the IC50 at 6 h (MTT cell viability assay) of the same compound?
A: 62 µg/mL (≈ 76.3 µM)

Q: What about the “Cell viability compared to the control” value (HepG2 cells; 1 µg/mL and 10 µg/mL) of the same compound?
A: significantly increased

Q: And the “Cell viability compared to the control” value (HepG2 cells; 200 µg/mL)?
A: significant decrease

Q: And the “Cell viability compared to the control” value (HepG2 cells; 50–100 µg/mL)?
A: not significantly altered

Q: What about the “Glyoxylase II activity” value [3] of the same compound?
A: did not reduce the activity; also recorded: did not interact

Q: For `C[C@@H](O)[C@H]1C(=O)N2C(C(=O)O)=C(S[C@@H]3CN[C@H](C(=O)N(C)C)C3)[C@H](C)[C@H]12` [Meropenem], which MIC [4] is on record?
A: 0.06 µg/mL

Q: What about the “Best Log10 Cfu/ml” value (K. pneumoniae NDM; treatment time 2 h) of the same compound?
A: 7.2 Log10 Cfu/ml

Q: And the “Mean Log10 Cfu/ml” value (K. pneumoniae NDM; treatment time 2 h)?
A: 6.8 Log10 Cfu/ml

Q: What about the “Best Log10 Cfu/ml” value (K. pneumoniae NDM; treatment time 4 h) of the same compound?
A: 8 Log10 Cfu/ml

Q: And the “Mean Log10 Cfu/ml” value (K. pneumoniae NDM; treatment time 4 h)?
A: 8.3 Log10 Cfu/ml

Q: What about the “Best Log10 Cfu/ml” value (K. pneumoniae NDM; treatment time 6 h) of the same compound?
A: 8.3 Log10 Cfu/ml

Q: What about the “Mean Log10 Cfu/ml” value (K. pneumoniae NDM; treatment time 6 h) of the same compound?
A: 8.4 Log10 Cfu/ml

Q: What about the “Best Log10 Cfu/ml” value (K. pneumoniae NDM; treatment time 8 h) of the same compound?
A: 8.3 Log10 Cfu/ml

Q: What about the “Mean Log10 Cfu/ml” value (K. pneumoniae NDM; treatment time 8 h) of the same compound?
A: 8.2 Log10 Cfu/ml
